Data reported in ChEMBL document CHEMBL1143068, “Isoform-selective inhibition of the human UDP-glucuronosyltransferase 2B7 by isolongifolol derivatives” (J Med Chem, 2007).

Columns and labels:
UGT2B15 = target: T1, UGT2B15 (Homo sapiens, UniProt P54855); assay: Inhibition of human recombinant UGT2B15 at 25 uM by fluorescence spectroscopy; parameters: scale not given: the % may be the effect or the level left; conditions: read-out: Activity
T1 sequence (P54855 whole entry): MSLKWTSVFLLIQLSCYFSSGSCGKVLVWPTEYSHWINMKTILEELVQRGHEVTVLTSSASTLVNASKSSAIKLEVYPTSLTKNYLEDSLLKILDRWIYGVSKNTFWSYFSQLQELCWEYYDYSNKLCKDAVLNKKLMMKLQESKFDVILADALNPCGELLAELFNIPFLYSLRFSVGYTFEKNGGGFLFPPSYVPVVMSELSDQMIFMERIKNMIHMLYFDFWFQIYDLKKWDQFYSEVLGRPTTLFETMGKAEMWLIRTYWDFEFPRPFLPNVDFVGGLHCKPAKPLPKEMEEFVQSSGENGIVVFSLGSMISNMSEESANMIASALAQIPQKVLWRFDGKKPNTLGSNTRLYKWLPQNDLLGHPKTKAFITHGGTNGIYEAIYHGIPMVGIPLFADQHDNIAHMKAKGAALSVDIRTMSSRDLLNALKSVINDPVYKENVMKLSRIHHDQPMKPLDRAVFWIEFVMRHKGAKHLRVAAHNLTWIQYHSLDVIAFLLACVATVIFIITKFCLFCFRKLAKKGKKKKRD

UGT2B4 = target: T2, UGT2B4 (Homo sapiens, UniProt P06133); assay: Inhibition of human recombinant UGT2B4 at 25 uM by fluorescence spectroscopy; parameters: scale not given: the % may be the effect or the level left; conditions: read-out: Activity
T2 sequence (P06133 whole entry): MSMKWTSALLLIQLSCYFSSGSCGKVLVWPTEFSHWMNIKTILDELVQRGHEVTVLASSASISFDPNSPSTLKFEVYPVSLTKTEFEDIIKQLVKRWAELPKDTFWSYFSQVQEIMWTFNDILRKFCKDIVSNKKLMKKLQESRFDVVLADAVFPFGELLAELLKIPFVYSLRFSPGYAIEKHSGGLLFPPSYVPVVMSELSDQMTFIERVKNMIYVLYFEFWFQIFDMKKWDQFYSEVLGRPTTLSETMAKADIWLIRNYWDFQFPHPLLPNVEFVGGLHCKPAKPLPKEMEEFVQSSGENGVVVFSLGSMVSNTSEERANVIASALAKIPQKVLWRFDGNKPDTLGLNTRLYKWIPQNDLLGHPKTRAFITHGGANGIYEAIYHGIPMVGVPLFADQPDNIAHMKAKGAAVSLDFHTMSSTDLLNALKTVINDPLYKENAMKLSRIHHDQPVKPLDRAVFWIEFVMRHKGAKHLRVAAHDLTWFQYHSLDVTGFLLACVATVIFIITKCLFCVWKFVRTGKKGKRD

UGT2B10 = target: T3, UGT2B10 (Homo sapiens, UniProt P36537); assay: Inhibition of human recombinant UGT2B10 at 25 uM by fluorescence spectroscopy; parameters: scale not given: the % may be the effect or the level left; conditions: read-out: Activity
T3 sequence (P36537 whole entry): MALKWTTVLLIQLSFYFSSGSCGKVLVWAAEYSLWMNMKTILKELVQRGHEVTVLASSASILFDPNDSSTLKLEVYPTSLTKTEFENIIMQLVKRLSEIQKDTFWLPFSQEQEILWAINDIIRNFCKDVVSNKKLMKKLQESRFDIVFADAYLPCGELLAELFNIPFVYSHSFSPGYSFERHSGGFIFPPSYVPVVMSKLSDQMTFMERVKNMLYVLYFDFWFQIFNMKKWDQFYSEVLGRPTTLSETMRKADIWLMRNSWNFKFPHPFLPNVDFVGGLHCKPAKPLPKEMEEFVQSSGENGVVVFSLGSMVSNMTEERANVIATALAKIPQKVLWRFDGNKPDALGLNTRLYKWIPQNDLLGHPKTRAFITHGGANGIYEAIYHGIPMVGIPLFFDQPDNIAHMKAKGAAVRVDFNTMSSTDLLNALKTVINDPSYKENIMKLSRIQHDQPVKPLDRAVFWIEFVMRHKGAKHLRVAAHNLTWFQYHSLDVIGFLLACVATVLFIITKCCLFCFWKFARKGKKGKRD

[1] = target: T4, UDP-glucuronosyltransferase 2B17 (Homo sapiens, UniProt O75795); assay: Inhibition of human recombinant UGT2B17 assessed as reduction of scopoletin glucuronidation
T4 sequence (O75795 whole entry): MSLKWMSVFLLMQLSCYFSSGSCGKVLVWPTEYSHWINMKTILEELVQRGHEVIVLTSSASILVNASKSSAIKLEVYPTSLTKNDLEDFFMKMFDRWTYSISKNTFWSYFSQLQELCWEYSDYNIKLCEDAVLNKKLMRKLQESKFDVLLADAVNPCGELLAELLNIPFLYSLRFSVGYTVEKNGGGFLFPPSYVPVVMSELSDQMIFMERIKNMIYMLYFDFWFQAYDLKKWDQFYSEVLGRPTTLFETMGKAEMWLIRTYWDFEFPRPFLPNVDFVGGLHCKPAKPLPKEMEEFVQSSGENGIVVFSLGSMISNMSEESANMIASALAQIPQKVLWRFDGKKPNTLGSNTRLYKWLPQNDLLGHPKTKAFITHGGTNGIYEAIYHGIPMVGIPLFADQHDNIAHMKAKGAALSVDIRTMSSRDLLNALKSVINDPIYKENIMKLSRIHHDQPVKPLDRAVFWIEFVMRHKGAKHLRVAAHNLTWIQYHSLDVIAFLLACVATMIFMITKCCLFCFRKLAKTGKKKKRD

UGT2B17 = target: T5, UGT2B17 (Homo sapiens, UniProt O75795); assay: Inhibition of human recombinant UGT2B17 at 25 uM by fluorescence spectroscopy
T5 sequence (O75795 whole entry): T4 sequence (O75795 whole entry)

UGT2B28 = target: T6, UGT2B28 (Homo sapiens, UniProt Q9BY64); assay: Inhibition of human recombinant UGT2B28 at 25 uM by fluorescence spectroscopy; parameters: scale not given: the % may be the effect or the level left; conditions: read-out: Activity
T6 sequence (Q9BY64 whole entry): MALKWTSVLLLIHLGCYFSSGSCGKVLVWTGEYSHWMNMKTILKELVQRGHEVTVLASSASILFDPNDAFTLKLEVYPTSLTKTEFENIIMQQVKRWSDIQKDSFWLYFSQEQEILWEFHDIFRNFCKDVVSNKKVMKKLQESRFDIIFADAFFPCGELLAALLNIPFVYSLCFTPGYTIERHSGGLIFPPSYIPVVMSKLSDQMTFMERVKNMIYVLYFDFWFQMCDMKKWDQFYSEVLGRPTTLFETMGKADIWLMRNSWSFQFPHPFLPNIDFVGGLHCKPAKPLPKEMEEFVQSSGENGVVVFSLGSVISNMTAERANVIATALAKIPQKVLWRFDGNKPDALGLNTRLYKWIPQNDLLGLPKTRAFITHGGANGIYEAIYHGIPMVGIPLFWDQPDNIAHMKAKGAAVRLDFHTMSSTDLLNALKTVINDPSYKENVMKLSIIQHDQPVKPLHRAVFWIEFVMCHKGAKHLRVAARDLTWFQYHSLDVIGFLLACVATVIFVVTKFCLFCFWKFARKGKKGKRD

activity at 25 µM (UGT2B15): 30%
activity at 25 µM (UGT2B4): 30%
activity at 25 µM (UGT2B10): 30%
Ki [1]: 21.8 µM
inhibition at 25 µM (UGT2B17): 70%
activity at 25 µM (UGT2B28): 30%
Structure (SMILES): CC1(C)CCC[C@]2(C)[C@@H]([C@@H](O)c3ccccc3)[C@H]3CC[C@@H]2[C@H]31
